We go through six compounds from US11434212B2, “Bicyclic compound as a caspase inhibitor” (CHIA TAI TIANQING PHARMACEUTICAL GROUP CO., LTD., priority 2017, dated 2022).

Common to all, as to format: biochemical
What all share (conditions): fluorogenic substrate 50 μM; test concentrations 1000 nM to 0.32 nM

One test has as its target T1, Caspase-1 (Homo sapiens, UniProt P29466).
T1 construct: purchased BioVision K151-100
T1 sequence (P29466 120-297 limits assumed): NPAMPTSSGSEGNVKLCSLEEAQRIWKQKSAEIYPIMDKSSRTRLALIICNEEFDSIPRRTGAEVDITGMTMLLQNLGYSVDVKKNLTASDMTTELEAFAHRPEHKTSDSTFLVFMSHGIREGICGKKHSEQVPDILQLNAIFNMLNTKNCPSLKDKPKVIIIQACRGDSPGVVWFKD
T1 sequence (P29466 317-404 limits assumed): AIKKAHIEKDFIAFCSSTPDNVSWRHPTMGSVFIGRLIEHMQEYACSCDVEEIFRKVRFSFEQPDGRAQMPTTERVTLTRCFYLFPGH
Briefly: In vitro inhibitory activity on Caspase-1 (BioVision Caspase-1 Inhibitor Screening Kit). As for the experimental part:
(§1) Caspase Inhibitor Screening Kit for BioVision was used in this experiment to test the inhibitory activity of the test compounds on Caspase.
Caspase-1 Inhibitor Screening Kit (BioVision #K151-100)
(§2) Note: Each caspase enzymatic experiment uses the reagents in corresponding kit thereof. Each enzyme was dissolved in 550 μl of the corresponding 2× reaction buffer, sub-packed and stored at −80° C., respectively.
(§3) 1) The compound was diluted to a 200*test concentration with DMSO via the multiple dilution, then to a 2*test concentration with ddH2O, and added to a 384-well experimental plate at 12.5 μl per well. Test compounds and control compounds were tested at 6 concentration points, test concentrations ranging from 1000 nM to 0.32 nM. The ddH2O containing 1% DMSO was added to the 0% inhibition control well, and a high concentration of the control compound was added to the 100% inhibition control well (final concentration: 5 μM).
(§4) 2) 2× reaction buffer containing 10 mM DTT was prepared. The enzyme caspase stock solution was diluted 5-fold with 2× reaction buffer containing 10 mM DTT and added to a 384-well experimental plate at 6.25 μl per well. After being mixed, the enzyme and compounds were incubated at 37° C. for 30 minutes.
(§5) 3) The fluorogenic substrate of the enzyme caspase was diluted 5-fold with 2× reaction buffer containing 10 mM DTT, and then added to a 384-well experimental plate at 6.25 μl per well. The total reaction volume was 25 μl, the final concentration of the substrate was 50 μM, and the final concentration of DMSO was 0.5%. After the substrate was added, the 384-well experimental plate was incubated at 37° C. for 30 minutes.
(§6) 4) The fluorescence intensity (excitation light wavelength was 400 nm, emission light wavelength was 505 nm) was measured by using a multi-function microplate reader. Fluorescence intensity was used to calculate the inhibitory effect of the compounds on Caspase. GraphPad Prism software was used for fitting compound inhibition curves and calculating IC50 values.

For the next test, the target named is T2, Caspase-3 (Homo sapiens, UniProt P42574).
T2 construct: purchased BioVision K153-100
T2 sequence (P42574 29-175 limits assumed): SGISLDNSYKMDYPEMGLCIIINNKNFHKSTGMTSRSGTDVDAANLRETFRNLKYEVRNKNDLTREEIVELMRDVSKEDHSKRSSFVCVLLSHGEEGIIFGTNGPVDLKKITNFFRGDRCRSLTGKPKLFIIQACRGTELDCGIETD
T2 sequence (P42574 176-277 limits assumed): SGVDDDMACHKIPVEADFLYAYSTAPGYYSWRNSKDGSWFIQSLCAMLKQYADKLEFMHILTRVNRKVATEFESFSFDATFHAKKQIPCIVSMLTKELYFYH
Put plainly: In vitro inhibitory activity on Caspase-3 (BioVision Caspase-3 Inhibitor Screening Kit). As for the experimental part:
as §1
Caspase-3 Inhibitor Screening Kit (BioVision #K153-100)
as §2, §3, §4, §5, §6

Another test has as its target T3, Caspase-8 (Homo sapiens, UniProt Q14790).
T3 construct: purchased BioVision K158-100
Briefly: In vitro inhibitory activity on Caspase-8 (BioVision Caspase-8 Inhibitor Screening Kit). How it is done: as §1
Caspase-8 Inhibitor Screening Kit (BioVision #K158-100)
as §2, §3, §4, §5, §6

Usually IC50 stands for the concentration needed to halve the response being measured. A high value points to lower potency.

T3 sequence (Q14790 217-374 limits assumed): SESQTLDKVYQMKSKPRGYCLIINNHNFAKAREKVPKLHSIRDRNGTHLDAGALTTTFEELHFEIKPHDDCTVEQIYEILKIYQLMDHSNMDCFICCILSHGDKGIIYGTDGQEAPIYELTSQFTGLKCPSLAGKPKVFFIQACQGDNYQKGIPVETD
T3 sequence (Q14790 385-479 limits assumed): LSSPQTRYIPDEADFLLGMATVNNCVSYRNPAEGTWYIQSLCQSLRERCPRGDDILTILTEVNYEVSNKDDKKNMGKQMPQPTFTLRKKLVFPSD

Regarding `C[C@H](NC(=O)c1cc(-c2ccccc2C(F)(F)F)on1)C(=O)N[C@@H](CC(=O)O)C(=O)COc1c(F)c(F)cc(F)c1F` [Example 11], the IC50 on Caspase-1 was 9.2 nM; against Caspase-3, 30 nM; on Caspase-8, 22.6 nM.
On to `C[C@H](NC(=O)c1cc(-c2ccccc2Cl)on1)C(=O)N[C@H](CC(=O)O)C(=O)COc1c(F)c(F)cc(F)c1F` [Example 18], for which the IC50 was found to be 7.5 nM on Caspase-1, 26.1 nM against Caspase-3 and 62.1 nM against Caspase-8.
Taken in the same sequence, the figures for `C[C@H](NC(=O)c1cc(-c2ccccc2F)on1)C(=O)N[C@@H](CC(=O)O)C(=O)COc1c(F)c(F)cc(F)c1F` [Example 12] were 6.7 nM, 21 nM and 17.9 nM.
On the same counts, the results for `C[C@H](NC(=O)c1cc(-c2cccc(Cl)c2)on1)C(=O)N[C@@H](CC(=O)O)C(=O)COc1c(F)c(F)cc(F)c1F` [Example 10] are 6.6 nM, 22 nM and 16.3 nM.
On the same counts, the results for `C[C@H](NC(=O)c1cc(-c2ccc(Cl)cc2)on1)C(=O)N[C@@H](CC(=O)O)C(=O)COc1c(F)c(F)cc(F)c1F` [Example 6] are 6 nM, 24.5 nM and 19.9 nM.
`C[C@H](NC(=O)c1c[nH]c(-c2ccccc2)n1)C(=O)N[C@@H](CC(=O)O)C(=O)COc1c(F)c(F)cc(F)c1F` [Example 3]: the IC50 is 4.8 nM against Caspase-1, 24 nM on Caspase-3 and 25.9 nM against Caspase-8.
